Among the data in US9932325B2 (Denali Therapeutics Inc., priority 2015, dated 2018) are IC50 values, retold here.

The assay addresses LRRK2 G2019S enzyme (Homo sapiens (Human), UniProt Q5S007, G2019S). The experiment in a line: LRRK2 G2019S TR-FRET biochemical assay (LRRKtide substrate). The conditions noted are these: 134 μM ATP. As for the experimental part:
Detection Reaction Conditions • 1× TR-FRET dilution buffer • 10 mM EDTA • 2 nM antibody • 23° C. reaction temperature • 10 μL total reaction volume
Compounds were prepared by initially diluting to 1 mM with DMSO. 35 μL of reference compound solution, 35 μL of test compound solution, and 35 μL HPE were successively added to the source plate (384-well assay plate, Labcyte). The plates were centrifuged at 2500 rpm for 1 minute and sealed in foil. […] The assay plate was centrifuged at 2500 rpm for 1 minute, and sealed with foil.
To perform the enzyme reaction, 5 μL of LRRKtide substrate and kinase mixture in assay buffer was added to all wells of the assay plate. The plate was centrifuged to concentrate the mixture at the bottom of the wells. The assay plate was incubated at 23° C. for 20 minutes. Following incubation, 5 μL of 2× ATP in assay buffer was added to each well, and plates were centrifuged to concentrate the mixture at the bottom of the wells. The plate was incubated at 23° C. for 60 minutes.
To perform the detection of the reaction, EDTA completely mixed in TR-FRET dilution buffer was added to antibody reagent. 10 μL of detection reagent was added to all wells of each well of the assay plate and the plate was centrifuged to concentrate the mixture at the bottom of the wells. The plate was then incubated at 23° C. for 60 minutes.
On the technique in general: In TR-FRET formats the signal depends on donor and acceptor labels being close together.

Where only a bound is given, the exact number is not on record here.

Chain of LRRK2 G2019S enzyme (Q5S007 whole entry G2019S): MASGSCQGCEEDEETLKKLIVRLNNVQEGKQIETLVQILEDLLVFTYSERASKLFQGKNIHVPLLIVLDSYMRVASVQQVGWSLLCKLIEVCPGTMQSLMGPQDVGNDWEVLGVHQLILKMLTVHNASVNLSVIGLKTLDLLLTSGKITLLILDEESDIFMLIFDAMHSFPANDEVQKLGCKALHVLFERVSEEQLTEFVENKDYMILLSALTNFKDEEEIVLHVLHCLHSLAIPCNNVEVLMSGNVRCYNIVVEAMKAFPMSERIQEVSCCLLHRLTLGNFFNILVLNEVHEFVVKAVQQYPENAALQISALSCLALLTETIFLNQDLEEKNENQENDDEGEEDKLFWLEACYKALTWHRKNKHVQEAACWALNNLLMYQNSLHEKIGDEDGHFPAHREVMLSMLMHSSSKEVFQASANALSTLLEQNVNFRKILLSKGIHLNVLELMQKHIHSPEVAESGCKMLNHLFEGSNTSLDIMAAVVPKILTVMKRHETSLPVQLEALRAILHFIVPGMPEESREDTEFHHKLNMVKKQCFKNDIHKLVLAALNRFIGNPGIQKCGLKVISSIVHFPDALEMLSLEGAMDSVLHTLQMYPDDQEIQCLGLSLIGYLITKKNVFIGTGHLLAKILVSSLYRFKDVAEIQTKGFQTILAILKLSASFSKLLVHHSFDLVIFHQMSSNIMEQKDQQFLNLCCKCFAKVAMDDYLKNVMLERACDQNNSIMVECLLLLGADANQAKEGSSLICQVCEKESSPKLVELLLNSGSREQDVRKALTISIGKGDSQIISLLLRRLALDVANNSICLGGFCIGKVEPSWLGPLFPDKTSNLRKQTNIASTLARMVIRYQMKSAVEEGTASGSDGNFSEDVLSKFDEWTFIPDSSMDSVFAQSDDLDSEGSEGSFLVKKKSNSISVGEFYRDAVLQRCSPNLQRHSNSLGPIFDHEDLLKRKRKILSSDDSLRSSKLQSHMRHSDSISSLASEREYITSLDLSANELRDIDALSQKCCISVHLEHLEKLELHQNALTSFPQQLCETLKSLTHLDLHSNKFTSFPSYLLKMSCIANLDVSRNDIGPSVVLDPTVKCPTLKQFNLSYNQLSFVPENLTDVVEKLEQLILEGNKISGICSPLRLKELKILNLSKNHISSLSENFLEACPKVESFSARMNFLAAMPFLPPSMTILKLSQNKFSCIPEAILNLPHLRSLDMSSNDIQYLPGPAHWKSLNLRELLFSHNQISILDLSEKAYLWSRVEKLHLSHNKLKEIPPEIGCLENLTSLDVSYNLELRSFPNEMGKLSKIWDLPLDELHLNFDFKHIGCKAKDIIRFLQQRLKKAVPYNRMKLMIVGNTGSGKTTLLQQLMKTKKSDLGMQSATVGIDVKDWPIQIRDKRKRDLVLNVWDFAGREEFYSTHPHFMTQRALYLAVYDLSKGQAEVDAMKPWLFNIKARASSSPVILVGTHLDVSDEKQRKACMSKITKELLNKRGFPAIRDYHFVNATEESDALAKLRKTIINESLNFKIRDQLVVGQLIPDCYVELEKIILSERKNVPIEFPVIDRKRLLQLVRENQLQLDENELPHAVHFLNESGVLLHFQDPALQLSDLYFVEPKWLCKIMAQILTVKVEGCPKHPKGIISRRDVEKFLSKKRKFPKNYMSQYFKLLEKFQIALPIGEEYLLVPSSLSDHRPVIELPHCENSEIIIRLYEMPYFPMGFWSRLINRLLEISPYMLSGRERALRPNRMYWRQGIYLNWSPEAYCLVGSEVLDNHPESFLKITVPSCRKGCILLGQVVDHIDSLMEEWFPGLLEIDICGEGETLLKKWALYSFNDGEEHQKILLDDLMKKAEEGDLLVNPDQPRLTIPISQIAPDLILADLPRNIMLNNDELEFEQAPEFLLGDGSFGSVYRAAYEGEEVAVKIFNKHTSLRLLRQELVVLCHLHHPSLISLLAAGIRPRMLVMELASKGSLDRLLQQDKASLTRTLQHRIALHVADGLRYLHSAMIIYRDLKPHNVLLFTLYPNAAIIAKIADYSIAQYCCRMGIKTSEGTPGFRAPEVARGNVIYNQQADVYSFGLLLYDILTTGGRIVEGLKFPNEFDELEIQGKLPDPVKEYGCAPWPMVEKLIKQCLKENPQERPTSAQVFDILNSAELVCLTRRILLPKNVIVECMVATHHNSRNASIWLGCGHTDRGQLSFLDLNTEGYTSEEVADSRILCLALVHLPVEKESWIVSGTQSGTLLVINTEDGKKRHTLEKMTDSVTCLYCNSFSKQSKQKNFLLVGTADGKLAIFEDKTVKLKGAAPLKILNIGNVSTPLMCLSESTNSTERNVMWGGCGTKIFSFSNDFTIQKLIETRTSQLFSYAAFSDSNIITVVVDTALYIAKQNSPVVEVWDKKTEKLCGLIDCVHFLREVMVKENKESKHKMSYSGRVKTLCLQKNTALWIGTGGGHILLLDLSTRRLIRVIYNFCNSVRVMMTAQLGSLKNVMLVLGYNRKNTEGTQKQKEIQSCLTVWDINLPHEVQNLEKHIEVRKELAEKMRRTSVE

Usually IC50 stands for the midpoint of a concentration-inhibition curve. `CCNc1nc(Nc2cnn3c2CC(C#N)C3)ncc1C(F)(F)F` (single isomer, unassigned) [Compound 52B] yielded an IC50 of less than 0.03 µM.
The molecule `CNc1nc(Nc2cc(C3(C)CCn4ccnc43)nn2C2CC2)ncc1C(F)(F)F` (stereo not drawn) [Compound 177] returned an IC50 greater than 0.06 µM.
`CCN1CCC(F)(F)C(n2ncc(Nc3ncc(C(F)(F)F)c(NC)n3)c2Cl)C1` (single isomer, unassigned) [Compound 202] came in with a half-inhibitory concentration (IC50) of less than 0.03 µM.
With `CCNc1nc(Nc2cnn([C@H]3C[C@@H](N4CCN(CC(F)F)CC4)C3)c2C)ncc1C(F)(F)F` [Compound 106] the figure was less than 0.03 µM.
With `CCNc1nc(Nc2cnn3c2CC(n2nccn2)C3)ncc1C(F)(F)F` (single isomer, unassigned) [Compound 54A] the figure was less than 0.03 µM; with `CNc1nc(Nc2cc(C(C)(C)c3ncccn3)nn2C2CC2)ncc1C(F)(F)F` [Compound 128], less than 0.03 µM.
With `CNc1nc(Nc2cn(C3C[C@@H]3C#N)nc2C2CC2)ncc1C(F)(F)F` (single isomer, unassigned) [Compound 208] the figure was less than 0.03 µM.
The molecule `COc1nc(Nc2cn(C3(C)CCNC3=O)nc2C)ncc1Br` (single isomer, unassigned) [Compound 64A] registered an IC50 of less than 0.03 µM.
With `CCNc1nc(Nc2cc(N3CCCC3=O)nn2C2CC2)ncc1C(F)(F)F` [Compound 153, 1-(1-cyclopropyl-5-((4-(ethylamino)-5-(trifluoromethyl)pyrimidin-2-yl)amino)-1H-pyrazol-3-yl)pyrrolidin-2-one], the concentration for half-maximal inhibition (IC50) is less than 0.03 µM.
With `CCNc1nc(Nc2cn(C3CC3)nc2[C@H]2C[C@@H](n3nccn3)C2)ncc1C(F)(F)F` [Compound 197] the figure was less than 0.03 µM.
With `CCNc1nc(Nc2cc(-c3ncoc3C)nn2C2CC2)ncc1C(F)(F)F` [Compound 142] the figure was less than 0.03 µM; with `CNc1nc(Nc2cnn(C3CN(C4COC4)CCC3(F)F)c2Cl)ncc1C(F)(F)F` (single isomer, unassigned) [Compound 28], less than 0.03 µM; with `Cc1nn(C(C)(C)C#N)cc1Nc1ncc(Br)c(NCC(F)F)n1` [Compound 73], less than 0.03 µM.
With `[2H]C([2H])([2H])C(C#N)(n1cc(Nc2ncc(C(F)(F)F)c(NC)n2)c(C)n1)C([2H])([2H])[2H]` [Compound 80] the figure was less than 0.03 µM; with `CCNc1nc(Nc2ccnn2[C@H]2C[C@H](n3nccn3)C2)ncc1C(F)(F)F` [Compound 182, N2-(1-((1R,3R)-3-(2H-1,2,3-triazol-2-yl)cyclobutyl)-1H-pyrazol-5-yl)-N4-ethyl-5-(trifluoromethyl)pyrimidine-2,4-diamine], less than 0.03 µM; with `CCNc1nc(Nc2cc(C3(C)CCn4ncnc43)nn2C2CC2)ncc1C(F)(F)F` (stereo not drawn) [Compound 171], greater than 0.06 µM.
Turning to `CCNc1nc(Nc2cc(N3CCCS3(=O)=O)nn2C2CC2)ncc1Br` [Compound 159], the IC50 is less than 0.03 µM.
With `CCNc1nc(Nc2cn(C(C)(C)c3ccn(C)n3)nc2C)ncc1C(F)(F)F` [Compound 18] the figure was less than 0.03 µM.
With `CNc1nc(Nc2cc([C@]34C[C@H]3COC4=O)nn2C2CC2)ncc1C(F)(F)F` [Compound 168] the figure was less than 0.03 µM; with `COc1nc(Nc2cn(C3(C)CCOC3=O)nc2C)ncc1Br` (single isomer, unassigned) [Compound 90], less than 0.03 µM.
With `CCNc1nc(Nc2cn(C3C[C@H]3C#N)nc2Cl)ncc1C(F)(F)F` (single isomer, unassigned) [Compound 207] the figure was less than 0.03 µM.
Consider `CCNc1nc(Nc2cn([C@H]3C[C@H](C#N)C3)nc2C)ncc1C(F)(F)F` [Compound 35A], for which the IC50 is less than 0.03 µM.
With `CNc1nc(Nc2cnn(C3CCCC3(C)O)c2C)ncc1C(F)(F)F` (single isomer, unassigned) [Compound 31] the figure was 0.03 to 0.06 µM; with `CCNc1nc(Nc2cc(C3(C)CCn4ccnc43)nn2C2CC2)ncc1C(F)(F)F` (stereo not drawn) [Compound 167], less than 0.03 µM.
With `CCNc1nc(Nc2cc(C3(C)COC3)nn2C2CC2)ncc1C(F)(F)F` [Compound 145] the figure was less than 0.03 µM; with `CNc1nc(Nc2cnn(C3C[C@@H]4[C@H](C3)C4(F)F)c2Cl)ncc1C(F)(F)F` (stereo partly drawn) [Compound 9], less than 0.03 µM.
`COc1nc(Nc2cnn(C3(C)CCNC3=O)c2C)ncc1Br` (stereo not drawn) [Compound 65] registered a concentration for half-maximal inhibition (IC50) of less than 0.03 µM.
With `CCNc1nc(Nc2cc(CN3CCCC3=O)nn2C2CC2)ncc1C(F)(F)F` [Compound 149] the figure was 0.03 to 0.06 µM.
With `[2H]C([2H])([2H])n1nc(C2(C)CCOC2=O)cc1Nc1ncc(C(F)(F)F)c(NC)n1` (stereo not drawn) [Compound 175] the figure was less than 0.03 µM.
With `Cc1nn(C(C)(C)C#N)cc1Nc1ncc(Cl)c(NC2CC2)n1` [Compound 72] the figure was less than 0.03 µM; with `CCNc1nc(Nc2cc(C(=O)N(C)C)nn2C2CC2)ncc1C(F)(F)F` [Compound 130], less than 0.03 µM; with `CNc1nc(Nc2cnn3c2CC2(COC2)C3)ncc1C(F)(F)F` [Compound 16], less than 0.03 µM.
On to `CCNc1nc(Nc2cc([C@H]3C[C@H]3C#N)nn2C2CC2)ncc1C(F)(F)F` [Compound 164], for which the half-inhibitory concentration (IC50) was less than 0.03 µM.
With `CCNc1nc(Nc2cc(C(C)(C)n3nccn3)nn2C)ncc1C(F)(F)F` [Compound 57] the figure was less than 0.03 µM; with `CNc1nc(Nc2cn(C(C)(C)C#N)nc2C)ncc1Br` [Compound 42], less than 0.03 µM; with `CCNc1nc(Nc2cn(C(C)(C)C#N)nc2C)ncc1C(F)(F)F` [Compound 87], less than 0.03 µM.
With `[2H]C([2H])([2H])n1nc(C(C)(C)n2cccn2)cc1Nc1ncc(C(F)(F)F)c(NCC)n1` [Compound 70] the figure was less than 0.03 µM; with `CCNc1nc(Nc2ccnn2[C@H]2C[C@H](C#N)C2)ncc1C(F)(F)F` [Compound 181, (1R,3R)-3-(5-((4-(ethylamino)-5-(trifluoromethyl)pyrimidin-2-yl)amino)-1H-pyrazol-1-yl)cyclobutanecarbonitrile], less than 0.03 µM; with `CNc1nc(Nc2cnn(C3CC4(COC4)C3)c2Cl)ncc1C(F)(F)F` [Compound 13], less than 0.03 µM.
With `CCNc1nc(Nc2cnn(-c3cnccn3)c2Cl)ncc1C(F)(F)F` [Compound 98] the figure was less than 0.03 µM.
Molecule `CNc1nc(Nc2cn(C3CC3)nc2[C@H]2C[C@@H](n3nccn3)C2)ncc1C(F)(F)F` [Compound 199] showed an IC50 of 0.03 to 0.06 µM.
With `COc1nc(Nc2cnn(C3CCC3)c2C#N)ncc1Br` [Compound 37] the figure was less than 0.03 µM.
Consider `[2H]C([2H])([2H])Nc1nc(Nc2cn(C(C)(C)C#N)nc2C)ncc1C(F)(F)F` [Compound 67], for which the IC50 was less than 0.03 µM.
With `CNc1nc(Nc2cn(C3(C)CCOC3=O)nc2C)ncc1C(F)(F)F` (single isomer, unassigned) [Compound 119] the figure was less than 0.03 µM.
With `[2H]C([2H])([2H])n1nc([C@]23C[C@H]2COC3=O)cc1Nc1ncc(C(F)(F)F)c(NCC)n1` [Compound 185] the figure was less than 0.03 µM; with `CCNc1nc(Nc2cc(C(C)(C)O)nn2C2CC2)ncc1C(F)(F)F` [Compound 134], less than 0.03 µM; with `Cc1nn(C(C)(C)C#N)cc1Nc1ncc(C(F)(F)F)c(NCC(F)F)n1` [Compound 59], less than 0.03 µM.
With `CCNc1nc(Nc2cn(C(C)(C)C#N)nc2C)ncc1Br` [Compound 43] the figure was less than 0.03 µM.
Take `Cc1nn(C(C)(C)C#N)cc1Nc1nc2c(c(C3CC3)n1)C1(CC1)CN2` [Compound 19]: the IC50 was less than 0.03 µM.
For the molecule `CCNc1nc(Nc2cn(C3C[C@@H]3C#N)nc2C2CC2)ncc1C(F)(F)F` (stereo partly drawn) [Compound 107], the half-maximal inhibitory concentration (IC50) was less than 0.03 µM.
As to `CNc1nc(Nc2cn(C(C)(C)c3ccn(C)n3)nc2C)ncc1C(F)(F)F` [Compound 15], the IC50 was less than 0.03 µM.
With `CCNc1nc(Nc2cc(N3CCCS3(=O)=O)nn2C2CC2)ncc1C(F)(F)F` [Compound 154] the figure was less than 0.03 µM.
With `CCNc1nc(Nc2ccnn2[C@H]2C[C@@H](n3ccnn3)C2)ncc1C(F)(F)F` [Compound 189] the figure was 0.03 to 0.06 µM.
With `CCNc1nc(Nc2cn(C3CS(=O)(=O)C3)nc2C2CC2)ncc1Br` [Compound 96] the figure was less than 0.03 µM; with `CCNc1nc(Nc2cnn([C@H]3C[C@@H](n4nccn4)C3)c2C2CC2)ncc1C(F)(F)F` [Compound 101], less than 0.03 µM; with `CNc1nc(Nc2cnn(C3CCCC3(C)O)c2C)ncc1C(F)(F)F` (single isomer, unassigned) [Compound 30], 0.03 to 0.06 µM.
`[2H]C([2H])([2H])n1nc(C(C)(C)n2cccn2)cc1Nc1ncc(C(F)(F)F)c(NC2CC2)n1` [Compound 71] had a 50% inhibitory concentration (IC50) of less than 0.03 µM.
With `CCNc1nc(Nc2cnn(C3CCC3)c2C#N)ncc1Br` [Compound 58] the figure was less than 0.03 µM; with `CCNc1nc(Nc2cnn3c2CC(n2ccnn2)C3)ncc1C(F)(F)F` (stereo not drawn) [Compound 61], less than 0.03 µM.
With `CCNc1nc(Nc2cc(N3CCCC3=O)nn2C2CC2)ncc1Br` [Compound 158], the half-maximal inhibitory concentration (IC50) was less than 0.03 µM.
With `CNc1nc(Nc2cnn(C3C[C@@H]4[C@H](C3)C4(F)F)c2C)ncc1C(F)(F)F` (stereo partly drawn) [Compound 11] the figure was less than 0.03 µM; with `CCNc1nc(Nc2cc(C(C)(C)O)nn2C2CCC2)ncc1C(F)(F)F` [Compound 191], less than 0.03 µM.
In turn, `[2H]C([2H])([2H])C([2H])([2H])n1nc(C(C)(C)n2nccn2)cc1Nc1ncc(C(F)(F)F)c(NCC)n1` [Compound 88] showed an IC50 of less than 0.03 µM.
